Data published in patent publication US7615536B2, “1,4-benzothiazepine 1,1-dioxide derivative, process for its preparation, medicaments comprising this compound, and use thereof as a hypolipidaemic” (Sanofi-Aventis Deutschland GmbH, priority 2005, dated 2009).

Target: T1, recombinantly expressed human sodium-dependent ileal bile acid transporter (IBAT, ASBT, SLC10A2) (Homo sapiens, UniProt Q12908)
T1 construct: Bases 599 to 1645 correspond to the complete coding region of the human IBAT; expressed in transfected cells
T1 sequence (Q12908 1-348): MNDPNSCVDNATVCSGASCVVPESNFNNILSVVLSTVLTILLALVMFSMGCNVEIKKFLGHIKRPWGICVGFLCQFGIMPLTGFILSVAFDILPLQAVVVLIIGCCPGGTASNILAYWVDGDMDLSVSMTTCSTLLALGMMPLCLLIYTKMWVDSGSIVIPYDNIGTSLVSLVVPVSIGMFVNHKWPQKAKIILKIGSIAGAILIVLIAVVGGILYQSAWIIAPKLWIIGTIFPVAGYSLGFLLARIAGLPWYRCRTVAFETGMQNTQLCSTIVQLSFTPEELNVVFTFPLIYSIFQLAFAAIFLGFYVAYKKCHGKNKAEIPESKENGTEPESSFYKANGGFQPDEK
Test: in vitro IBAT inhibition test ([3H]-taurocholic acid uptake into CHO-hIBAT cells)
Assay type: cell-based
Protocol: Biological testing of the compound A according to the invention was carried out using the in vitro IBAT inhibition test. This test examines the effect of the compound according to the invention on the transport activity of the recombinantly expressed human sodium-dependent ileal bile acid transporter (IBAT=ileal Na^+/bile acid contransporter, ASBT=apical sodium-dependent bile acid transporter, SLC10A2=solute carrier family 10, member 2).
Preparation for and practice of the in vitro IBAT inhibition test:
1. Cloning of an Expression Vector for Human IBAT […]
CHO-hIBAT cells were sown at a concentration of 40 000 cells per well in cell culture medium in poly-D-lysine-coated 96-well plates and cultivated for 24h. […] Finally, 100 μL of scintillation fluid were added to each well, and the radioactivity taken up into the cells was determined in a MicroBeta scintillation microplate reader from Wallac.
The half-maximal inhibitory effect of the test compound (IC50 value, inhibitory concentration 50) was determined as follows:
• 1. […] This is the value measured in the absence of substance, measured in sodium-comprising transport assay buffer. • 2. […] This is the value measured in the absence of substance, measured in sodium-free transport assay buffer. • 3. […]

Compound: CCCCC1(CCCC)CS(=O)(=O)c2ccc(N(C)C)cc2[C@@H](c2cccc(NC(=O)N[C@@H]3O[C@H](CO)[C@@H](O)[C@H](O)[C@H]3O)c2)N1 [Example A]
- IC50 (CHO-hIBAT cells, taurocholic acid 10 μM, 60 min at room temperature): 57 nM
- activity higher compared to comparative example from EP 1 169 313 (relative to compound 11a, from the IC50 (human IBAT) values): 560%
